Results reported in the supplement of paper PMC10307832.

Assays:
Experiment in all cases: relative viability (nuclei count vs DMSO), 5 days (fraction); higher = more cells survive
[1] = compound: CN1CCC(CC1)OC2=CC(=C(C=C2)NC3=NC=C4C(=N3)N(C(=O)N4C)C5CCCC5)OC [AZ3146] + CC(=O)c1c(C)c2cnc(Nc3ccc(N4CCNCC4)cn3)nc2n(C2CCCC2)c1=O [Palbociclib] (partner 0.5 µM)
In short: (§1)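 Relative viability was taken as the ratio of nuclei in treated wells to nuclei in vehicle wells. Lung cancer cell lines in 1536-well plates received compounds by pin tool one day after seeding, either one drug alone or a fixed anchor-drug dose plus five library-drug doses (not always all listed) in √10 steps. Nuclei were counted on 4× images after 5 days of treatment, and values are medians of duplicate plates.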

[2] = compound: CN1CCC(CC1)OC2=CC(=C(C=C2)NC3=NC=C4C(=N3)N(C(=O)N4C)C5CCCC5)OC [AZ3146] + O=C(c1cc(Cc2n[nH]c(=O)c3ccccc23)ccc1F)N1CCN(C(=O)C2CC2)CC1 [Olaparib] (partner 8 µM)
In short: as §1

[3] = compound: CN1CCC(CC1)OC2=CC(=C(C=C2)NC3=NC=C4C(=N3)N(C(=O)N4C)C5CCCC5)OC [AZ3146] + CS(=O)(=O)N1CCN(Cc2cc3nc(-c4cccc5[nH]ncc45)nc(N4CCOCC4)c3s2)CC1 [Pictilisib] (partner 1 µM)
In short: as §1

[4] = compound: CCOC(=O)CCNc1cc(N2CCc3ccccc3CC2)nc(-c2ccccn2)n1 [GSK-J4] + CC(=O)c1c(C)c2cnc(Nc3ccc(N4CCNCC4)cn3)nc2n(C2CCCC2)c1=O [Palbociclib] (partner 0.5 µM)
In short: as §1

| Cell Line | relative viability ([1]; first compound 0.08 µM) | relative viability ([1]; first compound 0.253 µM) | relative viability ([1]; first compound 0.8 µM) | relative viability ([1]; first compound 2.53 µM) | relative viability ([1]; first compound 8 µM) | relative viability ([2]; first compound 0.08 µM) | relative viability ([2]; first compound 0.253 µM) | relative viability ([2]; first compound 0.8 µM) | relative viability ([2]; first compound 2.53 µM) | relative viability ([2]; first compound 8 µM) | relative viability ([3]; first compound 0.08 µM) | relative viability ([3]; first compound 0.253 µM) | relative viability ([3]; first compound 0.8 µM) | relative viability ([3]; first compound 2.53 µM) | relative viability ([3]; first compound 8 µM) | relative viability ([4]; first compound 0.5 µM) | relative viability ([4]; first compound 1.581 µM) | relative viability ([4]; first compound 5 µM) | relative viability ([4]; first compound 15.81 µM) | relative viability ([4]; first compound 50 µM) |
| --- | --- | --- | --- | --- | --- | --- | --- | --- | --- | --- | --- | --- | --- | --- | --- | --- | --- | --- | --- | --- |
| 201T | 0.327 | 0.359 | 0.382 | 0.348 | 0.347 | 0.855 | 0.829 | 0.827 | 0.874 | 0.805 | 0.634 | 0.643 | 0.656 | 0.707 | 0.596 | 0.359 | 0.358 | 0.361 | 0.326 | 0.352 |
| A549 |  |  |  |  |  | 0.203 | 0.268 | 0.419 | 0.43 | 0.269 | 0.475 | 0.503 | 0.483 | 0.404 | 0.139 |  |  |  |  |  |
| A-427 | 0.482 | 0.521 | 0.497 | 0.493 | 0.463 | 0.689 | 0.813 | 0.758 | 0.794 | 0.652 | 0.826 | 0.626 | 0.65 | 0.519 | 0.675 | 0.507 | 0.439 |  | 0.511 | 0.443 |
| ABC-1 | 0.432 | 0.736 | 0.751 | 0.851 | 0.573 | 0.744 | 0.707 | 0.714 | 0.78 | 0.606 | 0.566 | 0.866 | 0.687 | 0.878 | 0.723 | 0.599 | 0.589 | 0.605 | 0.691 | 0.432 |
| BEN |  | 0.47 | 0.511 | 0.479 | 0.471 |  | 1.07 | 1.12 | 0.899 | 0.917 |  | 0.51 | 0.403 | 0.533 | 0.573 | 0.476 | 0.314 | 0.465 | 0.419 | 0.457 |
| CAL-12T | 0.391 | 0.502 | 0.45 | 0.523 | 0.229 | 0.733 | 0.822 | 0.717 | 0.658 | 0.6 | 0.334 |  | 0.475 | 0.554 | 0.481 | 0.46 | 0.342 | 0.442 | 0.482 | 0.493 |
| COR-L23 | 0.244 | 0.351 | 0.328 | 0.321 | 0.278 | 0.28 | 0.363 | 0.353 | 0.361 | 0.324 | 0.643 | 0.922 | 0.824 | 0.77 | 0.667 | 0.274 | 0.233 |  | 0.251 | 0.258 |
| COR-L 105 | 0.408 | 0.365 | 0.377 | 0.346 | 0.372 | 0.654 | 0.717 | 0.503 | 0.696 | 0.648 | 0.38 | 0.406 | 0.419 | 0.356 | 0.237 | 0.428 |  | 0.342 | 0.415 | 0.396 |
| Calu-6 |  |  |  |  |  | 0.55 | 0.505 | 0.535 | 0.551 | 0.5 | 0.871 | 0.984 | 0.865 | 0.859 | 0.515 |  |  |  |  |  |
